Measured values from PubChem BioAssay (NCI).
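Tested at 5 concentrations; 48 h exposure; 96-well plates; endpoints linearly interpolated, else capped at highest concentration. TGI denotes the concentration required for complete inhibition of growth.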

Experiments:
Assay in all cases: NCI anticancer screen, dose series, 48 h
[1] = tested on: SW-620 colon
[2] = tested on: SF-268 CNS
[3] = tested on: COLO 205 colon
[4] = tested on: NCI-H23 lung
[5] = tested on: MDA-N
[6] = tested on: HOP-62 NSCLC
[7] = tested on: UACC-257 melanoma
[8] = tested on: PC-3 prostate
[9] = tested on: NCI-H522 lung
[10] = tested on: SN12C renal
[11] = tested on: CAKI-1 renal
[12] = tested on: TK-10 renal
[13] = tested on: OVCAR-4 ovarian
[14] = tested on: SK-MEL-28 melanoma
[15] = tested on: HCC-2998 colon
[16] = tested on: DU-145 prostate
[17] = tested on: BT-549 breast
[18] = tested on: ACHN renal
[19] = tested on: NCI-H226 lung
[20] = tested on: UACC-62 melanoma
[21] = tested on: A549 NSCLC
[22] = tested on: HCT-116 colon
[23] = tested on: 786-0 renal
[24] = tested on: NCI-H460 lung
[25] = tested on: HL-60(TB) leukemia
[26] = tested on: HCT-15 colon
[27] = tested on: CCRF-CEM leukemia
[28] = tested on: KM12 colon
[29] = tested on: EKVX NSCLC
[30] = tested on: SK-MEL-5 melanoma
[31] = tested on: RXF 393 renal
[32] = tested on: M14 melanoma
[33] = tested on: SF-539 CNS
[34] = tested on: NCI/ADR-RES ovarian
[35] = tested on: OVCAR-8 ovarian
[36] = tested on: SF-295 CNS
[37] = tested on: HS 578T breast
[38] = tested on: SNB-75 CNS
[39] = tested on: MOLT-4 leukemia
[40] = tested on: MDA-MB-231 breast
[41] = tested on: UO-31 renal
[42] = tested on: OVCAR-5 ovarian
[43] = tested on: U251 CNS
[44] = tested on: LOX IMVI melanoma
[45] = tested on: SK-MEL-2 melanoma
[46] = tested on: OVCAR-3 ovarian
[47] = tested on: SNB-19 CNS
[48] = tested on: HOP-92 NSCLC
[49] = tested on: SK-OV-3 ovarian
[50] = tested on: IGROV1 ovarian
[51] = tested on: MDA-MB-435
[52] = tested on: MCF7 breast
[53] = tested on: RPMI-8226 leukemia
[54] = tested on: HT29 colon
[55] = tested on: K-562 leukemia
[56] = tested on: MALME-3M melanoma
[57] = tested on: SR leukemia
[58] = tested on: A498 renal

CCCCOC(=O)C(=O)C(CC(CC)C(=O)c1ccccc1)C(=O)C=C(C)C (stereo unspecified)
TGI [1]: > 100 µM
TGI [2]: > 100 µM
TGI [3]: > 100 µM
TGI [4]: > 100 µM
TGI [5]: > 100 µM
TGI [6]: > 100 µM
TGI [7]: > 100 µM
TGI [8]: > 100 µM
TGI [9]: > 100 µM
TGI [10]: > 100 µM
TGI [11]: > 100 µM
TGI [12]: > 100 µM
TGI [13]: > 100 µM
TGI [14]: > 100 µM
TGI [15]: > 100 µM
TGI [16]: > 100 µM
TGI [17]: > 100 µM
TGI [18]: > 100 µM
TGI [19]: > 100 µM
TGI [20]: > 100 µM
TGI [21]: > 100 µM
TGI [22]: > 100 µM
TGI [23]: > 100 µM
TGI [24]: > 100 µM
TGI [25]: > 100 µM
TGI [26]: > 100 µM
TGI [27]: > 100 µM
TGI [28]: > 100 µM
TGI [29]: > 100 µM
TGI [30]: > 100 µM
TGI [31]: > 100 µM
TGI [32]: > 100 µM
TGI [33]: > 100 µM
TGI [34]: > 100 µM
TGI [35]: > 100 µM
TGI [36]: > 100 µM
TGI [37]: > 100 µM
TGI [38]: > 100 µM
TGI [39]: > 100 µM
TGI [40]: > 100 µM
TGI [41]: > 100 µM
TGI [42]: > 100 µM
TGI [43]: > 100 µM
TGI [44]: > 100 µM
TGI [45]: > 100 µM
TGI [46]: > 100 µM
TGI [47]: > 100 µM
TGI [48]: > 100 µM
TGI [49]: > 100 µM
TGI [50]: > 100 µM
TGI [51]: > 100 µM
TGI [52]: > 100 µM

O=c1[nH]c2[nH]c(-c3ccc(Br)cc3)cc2c2ccccc12
TGI [1]: > 100 µM
TGI [2]: > 100 µM
TGI [3]: > 100 µM
TGI [4]: > 100 µM
TGI [5]: > 100 µM
TGI [53]: > 100 µM
TGI [6]: 53.9 µM
TGI [7]: > 100 µM
TGI [8]: > 100 µM
TGI [54]: > 100 µM
TGI [9]: > 100 µM
TGI [10]: > 100 µM
TGI [11]: > 100 µM
TGI [12]: > 100 µM
TGI [13]: > 100 µM
TGI [14]: > 100 µM
TGI [15]: > 100 µM
TGI [16]: > 100 µM
TGI [17]: > 100 µM
TGI [18]: > 100 µM
TGI [19]: > 100 µM
TGI [20]: > 100 µM
TGI [22]: > 100 µM
TGI [23]: > 100 µM
TGI [24]: > 100 µM
TGI [55]: > 100 µM
TGI [56]: > 100 µM
TGI [25]: 28 µM
TGI [26]: > 100 µM
TGI [28]: > 100 µM
TGI [29]: > 100 µM
TGI [30]: > 100 µM
TGI [31]: 47.1 µM
TGI [33]: > 100 µM
TGI [34]: > 100 µM
TGI [35]: > 100 µM
TGI [36]: > 100 µM
TGI [37]: 38.5 µM
TGI [38]: 37.1 µM
TGI [39]: 26.9 µM
TGI [57]: 26.9 µM
TGI [40]: 44.6 µM
TGI [41]: > 100 µM
TGI [42]: > 100 µM
TGI [43]: 92.1 µM
TGI [45]: > 100 µM
TGI [46]: > 100 µM
TGI [47]: > 100 µM
TGI [58]: > 100 µM
TGI [50]: > 100 µM
TGI [51]: > 100 µM
TGI [52]: > 100 µM

COc1ccc(Nc2nc3cc(C(F)(F)F)ccc3nc2C(=O)O)cc1
TGI [1]: 77.6 µM
TGI [2]: 39.5 µM
TGI [3]: 46.7 µM
TGI [4]: 30 µM
TGI [5]: > 100 µM
TGI [6]: 30.4 µM
TGI [7]: 50.7 µM
TGI [8]: 57 µM
TGI [54]: > 100 µM
TGI [9]: 30 µM
TGI [10]: > 100 µM
TGI [11]: > 100 µM
TGI [12]: > 100 µM
TGI [13]: > 100 µM
TGI [14]: > 100 µM
TGI [15]: 31.9 µM
TGI [16]: > 100 µM
TGI [17]: 29.2 µM
TGI [18]: > 100 µM
TGI [19]: 54.1 µM
TGI [20]: 27.2 µM
TGI [22]: 33.5 µM
TGI [23]: 43.9 µM
TGI [24]: 53.3 µM
TGI [55]: 44.4 µM
TGI [56]: 41.4 µM
TGI [25]: 83.6 µM
TGI [26]: 39 µM
TGI [28]: 92.4 µM
TGI [29]: 67.5 µM
TGI [30]: 58.5 µM
TGI [31]: 26.8 µM
TGI [34]: 61 µM
TGI [35]: 46.7 µM
TGI [36]: 35.7 µM
TGI [37]: 55.5 µM
TGI [38]: 48.3 µM
TGI [39]: 28.6 µM
TGI [57]: 34.1 µM
TGI [40]: > 100 µM
TGI [41]: 26.5 µM
TGI [42]: 60.6 µM
TGI [43]: 30.4 µM
TGI [44]: 40.8 µM
TGI [45]: 28 µM
TGI [46]: 34.1 µM
TGI [47]: 72.2 µM
TGI [58]: 35 µM
TGI [50]: 90.2 µM
TGI [51]: 48.1 µM
TGI [52]: 51.7 µM

C=C1CCc2ccccc2C1=O
TGI [1]: > 100 µM
TGI [2]: > 100 µM
TGI [3]: > 100 µM
TGI [4]: > 100 µM
TGI [5]: > 100 µM
TGI [53]: > 100 µM
TGI [6]: > 100 µM
TGI [7]: > 100 µM
TGI [8]: > 100 µM
TGI [54]: > 100 µM
TGI [9]: > 100 µM
TGI [10]: > 100 µM
TGI [11]: > 100 µM
TGI [12]: > 100 µM
TGI [13]: > 100 µM
TGI [15]: > 100 µM
TGI [16]: > 100 µM
TGI [17]: > 100 µM
TGI [18]: > 100 µM
TGI [19]: > 100 µM
TGI [20]: > 100 µM
TGI [21]: > 100 µM
TGI [22]: > 100 µM
TGI [23]: > 100 µM
TGI [24]: > 100 µM
TGI [55]: > 100 µM
TGI [56]: > 100 µM
TGI [25]: > 100 µM
TGI [26]: > 100 µM
TGI [27]: > 100 µM
TGI [28]: > 100 µM
TGI [29]: > 100 µM
TGI [30]: > 100 µM
TGI [31]: > 100 µM
TGI [32]: > 100 µM
TGI [33]: > 100 µM
TGI [34]: > 100 µM
TGI [35]: > 100 µM
TGI [36]: > 100 µM
TGI [37]: > 100 µM
TGI [38]: > 100 µM
TGI [39]: > 100 µM
TGI [57]: 78.9 µM
TGI [40]: > 100 µM
TGI [41]: > 100 µM
TGI [42]: > 100 µM
TGI [43]: > 100 µM
TGI [45]: > 100 µM
TGI [46]: > 100 µM
TGI [47]: > 100 µM
TGI [48]: > 100 µM
TGI [49]: > 100 µM
TGI [58]: > 100 µM
TGI [50]: > 100 µM
TGI [51]: > 100 µM
TGI [52]: > 100 µM

c1ccc2c3ccn4ccc5c6ccccc6[nH]c5c4c-3nc2c1
TGI [1]: 0.34 µM
TGI [3]: 1.79 µM
TGI [4]: 3.61 µM
TGI [5]: 2.69 µM
TGI [6]: 2.76 µM
TGI [7]: 4.25 µM
TGI [8]: 2.71 µM
TGI [54]: 1.11 µM
TGI [9]: 3.27 µM
TGI [10]: 2.68 µM
TGI [11]: 2.93 µM
TGI [12]: 4.2 µM
TGI [13]: 0.552 µM
TGI [14]: 3.2 µM
TGI [15]: 0.879 µM
TGI [16]: 2.73 µM
TGI [17]: 3.6 µM
TGI [18]: 2.74 µM
TGI [20]: 3.51 µM
TGI [21]: 1.26 µM
TGI [22]: 1.69 µM
TGI [24]: 0.63 µM
TGI [56]: 3.06 µM
TGI [25]: 2.43 µM
TGI [26]: 1.38 µM
TGI [28]: 2.3 µM
TGI [29]: 2.72 µM
TGI [30]: 2.8 µM
TGI [32]: 3.79 µM
TGI [33]: 2.98 µM
TGI [34]: 4.27 µM
TGI [35]: 0.638 µM
TGI [36]: 3 µM
TGI [37]: 5.23 µM
TGI [38]: 2.98 µM
TGI [57]: 0.625 µM
TGI [40]: 1.31 µM
TGI [41]: 2.71 µM
TGI [42]: 2.92 µM
TGI [43]: 0.0992 µM
TGI [44]: 0.316 µM
TGI [45]: 3.13 µM
TGI [46]: 0.315 µM
TGI [47]: 2.93 µM
TGI [48]: 3.12 µM
TGI [49]: 3.02 µM
TGI [58]: 3.02 µM
TGI [50]: 2.83 µM
TGI [51]: 2.89 µM
TGI [52]: 2.65 µM
